One assay concerns the target human ACC2 (Homo sapiens (Human), UniProt O00763). Type of assay: biochemical. Conditions: for pIC50: human ACC2, read-out: IC50 (hACC2).
Assay [1] has as its system C2C12 mouse muscle cell line. Description: Palmitate oxidation in a mouse muscle cell line (C2C12). Format: cell-based. Conditions: 10 μM. The protocol:
In another pharmacological test both compounds were tested for palmitate oxidation in a mouse muscle cell line (C2C12) which is also mediated by ACC inhibition.

In another assay the target is rACC2 (Rattus norvegicus, UniProt O70151). Description: Enzymatic assay of ACC inhibitors, rat ACC2. Type of assay: biochemical. As for the experimental part:
(§1) The enzymatic activity of ACC and its inhibition by test substances were determined by a luminometric assay. The reaction mixture contained 50 mM tris acetate (Merck, #1.08382.1000), pH 7.5, 250 μM acetyl coenzyme A (Sigma, #A2181),16 mM NaHCO3 (Merck, #1.06329.0500), 0.9 mg/ml bovine serum albumin (Sigma, #A8806), 25 μM ATP (Sigma, #A7699), 1.1 μM β-mercaptoethanol (Roth, #4227,1), 4.3 mM magnesium acetate ((Merck, #1.05819.0250), 10 mM sodium citrate (Merck, #1.06448.0500) and 200-400 ng of the ACC preparations. The mixture also contained a test compound. The test compounds were each dissolved in 10 mM DMSO and were assayed at final concentrations of 0 μM, 0.01 μM, 0.03 μM, 0.1 μM, 0.3 μM, 1 μM, 3 μM, 10 μM, 30 μM and 100 μM. The final concentration of the DMSO in the assay was 0.1% (v/v). The reaction was started by adding ACC and was carried out at 37° C. for 90 min. The reaction was then stopped by adding 150 μl of 0.5 M tris acetate. 10 μl of the mixture were removed and mixed with 90 μl of ATP monitoring reagent (Cambrex, #LT27-002). After incubation for 10 min, the luminescence was measured in a luminometer (Tecan Genios Pro).
The crude luminescence data were transferred into a Microsoft Excel file. The luminescence measured in the absence of ACC in the reaction mixture was defined as 100%. The value in the presence of ACC with 0 μM test compound was set at 0%. Dose-effect plots were calculated with the XL.Fit program as specified by the producer (IDBS). The IC50 of a test substance was the concentration of the test compound at which a luminescence of 50% was measured.

The target in another assay is human ACC1 (Homo sapiens (Human), UniProt Q13085).
The next assay deals with rACC1 (Rattus norvegicus (Rat), UniProt P11497). The assay is described as follows: Enzymatic assay of ACC inhibitors, rat ACC1. Type of assay: biochemical. As for the experimental part:
as §1, with “10 μl of the mixture were removed and mixed with 90 μl of ATP monitoring reagent (Cambrex, #LT27-002).” left out
The crude luminescence data were transferred into a Microsoft Excel file. The luminescence measured in the absence of ACC in the reaction mixture was defined as 100%. […] Dose-effect plots were calculated with the XL.Fit program as specified by the producer (IDBS). […]

[2] abbreviates: relative to comparative example 59.
[3] abbreviates: relative to comparative example 59, respective rat ACC isoforms.

SMILES strings stand for the structures. pIC50: −log10 of the molar value. Where two headings read alike, the source gives them in different places. Bounds are passed on as bounds.

Chain of human ACC2 (O00763 151-2458): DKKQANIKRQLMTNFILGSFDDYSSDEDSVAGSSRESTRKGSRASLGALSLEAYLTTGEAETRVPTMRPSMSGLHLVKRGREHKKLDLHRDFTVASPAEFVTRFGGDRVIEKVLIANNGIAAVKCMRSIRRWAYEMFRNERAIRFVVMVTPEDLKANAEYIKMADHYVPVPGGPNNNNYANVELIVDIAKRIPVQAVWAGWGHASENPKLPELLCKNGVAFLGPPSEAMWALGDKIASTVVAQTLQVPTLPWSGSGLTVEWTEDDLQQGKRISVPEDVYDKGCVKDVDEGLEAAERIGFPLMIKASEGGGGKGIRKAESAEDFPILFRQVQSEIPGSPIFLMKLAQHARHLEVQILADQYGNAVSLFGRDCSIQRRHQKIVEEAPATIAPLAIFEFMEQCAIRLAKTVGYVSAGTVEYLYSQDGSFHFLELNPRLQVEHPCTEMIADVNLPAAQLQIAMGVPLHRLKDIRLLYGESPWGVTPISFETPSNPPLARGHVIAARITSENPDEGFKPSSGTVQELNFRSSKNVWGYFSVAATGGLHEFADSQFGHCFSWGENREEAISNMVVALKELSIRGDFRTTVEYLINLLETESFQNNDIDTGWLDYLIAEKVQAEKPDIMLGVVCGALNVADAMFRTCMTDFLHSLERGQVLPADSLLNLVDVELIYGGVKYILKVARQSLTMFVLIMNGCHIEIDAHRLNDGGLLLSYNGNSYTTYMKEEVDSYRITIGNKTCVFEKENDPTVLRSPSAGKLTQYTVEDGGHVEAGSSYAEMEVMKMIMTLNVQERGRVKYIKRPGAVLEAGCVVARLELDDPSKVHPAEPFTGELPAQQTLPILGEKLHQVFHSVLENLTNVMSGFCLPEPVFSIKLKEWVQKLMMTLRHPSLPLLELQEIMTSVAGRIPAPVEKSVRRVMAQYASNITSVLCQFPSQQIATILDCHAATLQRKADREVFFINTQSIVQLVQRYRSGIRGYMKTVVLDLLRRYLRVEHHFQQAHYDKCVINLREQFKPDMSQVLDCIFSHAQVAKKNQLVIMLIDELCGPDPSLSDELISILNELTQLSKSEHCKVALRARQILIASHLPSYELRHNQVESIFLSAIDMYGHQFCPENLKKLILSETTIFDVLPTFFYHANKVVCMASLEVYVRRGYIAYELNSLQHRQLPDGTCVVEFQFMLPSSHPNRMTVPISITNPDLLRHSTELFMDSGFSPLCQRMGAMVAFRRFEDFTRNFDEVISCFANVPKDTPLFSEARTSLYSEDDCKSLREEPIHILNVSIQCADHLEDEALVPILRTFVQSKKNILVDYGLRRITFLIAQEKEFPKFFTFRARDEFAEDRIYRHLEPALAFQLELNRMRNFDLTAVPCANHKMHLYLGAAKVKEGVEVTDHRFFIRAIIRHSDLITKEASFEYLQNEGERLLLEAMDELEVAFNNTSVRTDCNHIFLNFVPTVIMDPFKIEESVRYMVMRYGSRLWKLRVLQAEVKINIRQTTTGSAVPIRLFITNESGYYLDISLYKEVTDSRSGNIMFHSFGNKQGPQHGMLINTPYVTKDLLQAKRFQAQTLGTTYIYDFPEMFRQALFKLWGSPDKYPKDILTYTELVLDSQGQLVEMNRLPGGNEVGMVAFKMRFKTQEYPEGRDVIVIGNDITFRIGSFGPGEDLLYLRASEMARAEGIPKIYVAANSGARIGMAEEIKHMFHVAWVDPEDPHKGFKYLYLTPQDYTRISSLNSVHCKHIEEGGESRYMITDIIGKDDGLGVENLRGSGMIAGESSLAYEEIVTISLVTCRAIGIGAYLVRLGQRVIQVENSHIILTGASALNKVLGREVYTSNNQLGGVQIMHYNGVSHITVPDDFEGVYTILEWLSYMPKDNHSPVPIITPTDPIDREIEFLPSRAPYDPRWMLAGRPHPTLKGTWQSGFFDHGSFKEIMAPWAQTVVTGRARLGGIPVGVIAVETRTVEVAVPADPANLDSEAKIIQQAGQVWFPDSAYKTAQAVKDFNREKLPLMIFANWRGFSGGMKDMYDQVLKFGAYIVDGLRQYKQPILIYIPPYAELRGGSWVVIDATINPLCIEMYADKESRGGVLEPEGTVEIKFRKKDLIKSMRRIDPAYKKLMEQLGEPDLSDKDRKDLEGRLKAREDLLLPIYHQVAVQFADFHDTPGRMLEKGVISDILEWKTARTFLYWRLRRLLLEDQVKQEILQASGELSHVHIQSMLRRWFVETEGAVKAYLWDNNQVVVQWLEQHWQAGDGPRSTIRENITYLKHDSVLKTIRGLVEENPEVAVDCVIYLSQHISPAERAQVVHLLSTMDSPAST
Chain of rACC2 (O70151 1-2456): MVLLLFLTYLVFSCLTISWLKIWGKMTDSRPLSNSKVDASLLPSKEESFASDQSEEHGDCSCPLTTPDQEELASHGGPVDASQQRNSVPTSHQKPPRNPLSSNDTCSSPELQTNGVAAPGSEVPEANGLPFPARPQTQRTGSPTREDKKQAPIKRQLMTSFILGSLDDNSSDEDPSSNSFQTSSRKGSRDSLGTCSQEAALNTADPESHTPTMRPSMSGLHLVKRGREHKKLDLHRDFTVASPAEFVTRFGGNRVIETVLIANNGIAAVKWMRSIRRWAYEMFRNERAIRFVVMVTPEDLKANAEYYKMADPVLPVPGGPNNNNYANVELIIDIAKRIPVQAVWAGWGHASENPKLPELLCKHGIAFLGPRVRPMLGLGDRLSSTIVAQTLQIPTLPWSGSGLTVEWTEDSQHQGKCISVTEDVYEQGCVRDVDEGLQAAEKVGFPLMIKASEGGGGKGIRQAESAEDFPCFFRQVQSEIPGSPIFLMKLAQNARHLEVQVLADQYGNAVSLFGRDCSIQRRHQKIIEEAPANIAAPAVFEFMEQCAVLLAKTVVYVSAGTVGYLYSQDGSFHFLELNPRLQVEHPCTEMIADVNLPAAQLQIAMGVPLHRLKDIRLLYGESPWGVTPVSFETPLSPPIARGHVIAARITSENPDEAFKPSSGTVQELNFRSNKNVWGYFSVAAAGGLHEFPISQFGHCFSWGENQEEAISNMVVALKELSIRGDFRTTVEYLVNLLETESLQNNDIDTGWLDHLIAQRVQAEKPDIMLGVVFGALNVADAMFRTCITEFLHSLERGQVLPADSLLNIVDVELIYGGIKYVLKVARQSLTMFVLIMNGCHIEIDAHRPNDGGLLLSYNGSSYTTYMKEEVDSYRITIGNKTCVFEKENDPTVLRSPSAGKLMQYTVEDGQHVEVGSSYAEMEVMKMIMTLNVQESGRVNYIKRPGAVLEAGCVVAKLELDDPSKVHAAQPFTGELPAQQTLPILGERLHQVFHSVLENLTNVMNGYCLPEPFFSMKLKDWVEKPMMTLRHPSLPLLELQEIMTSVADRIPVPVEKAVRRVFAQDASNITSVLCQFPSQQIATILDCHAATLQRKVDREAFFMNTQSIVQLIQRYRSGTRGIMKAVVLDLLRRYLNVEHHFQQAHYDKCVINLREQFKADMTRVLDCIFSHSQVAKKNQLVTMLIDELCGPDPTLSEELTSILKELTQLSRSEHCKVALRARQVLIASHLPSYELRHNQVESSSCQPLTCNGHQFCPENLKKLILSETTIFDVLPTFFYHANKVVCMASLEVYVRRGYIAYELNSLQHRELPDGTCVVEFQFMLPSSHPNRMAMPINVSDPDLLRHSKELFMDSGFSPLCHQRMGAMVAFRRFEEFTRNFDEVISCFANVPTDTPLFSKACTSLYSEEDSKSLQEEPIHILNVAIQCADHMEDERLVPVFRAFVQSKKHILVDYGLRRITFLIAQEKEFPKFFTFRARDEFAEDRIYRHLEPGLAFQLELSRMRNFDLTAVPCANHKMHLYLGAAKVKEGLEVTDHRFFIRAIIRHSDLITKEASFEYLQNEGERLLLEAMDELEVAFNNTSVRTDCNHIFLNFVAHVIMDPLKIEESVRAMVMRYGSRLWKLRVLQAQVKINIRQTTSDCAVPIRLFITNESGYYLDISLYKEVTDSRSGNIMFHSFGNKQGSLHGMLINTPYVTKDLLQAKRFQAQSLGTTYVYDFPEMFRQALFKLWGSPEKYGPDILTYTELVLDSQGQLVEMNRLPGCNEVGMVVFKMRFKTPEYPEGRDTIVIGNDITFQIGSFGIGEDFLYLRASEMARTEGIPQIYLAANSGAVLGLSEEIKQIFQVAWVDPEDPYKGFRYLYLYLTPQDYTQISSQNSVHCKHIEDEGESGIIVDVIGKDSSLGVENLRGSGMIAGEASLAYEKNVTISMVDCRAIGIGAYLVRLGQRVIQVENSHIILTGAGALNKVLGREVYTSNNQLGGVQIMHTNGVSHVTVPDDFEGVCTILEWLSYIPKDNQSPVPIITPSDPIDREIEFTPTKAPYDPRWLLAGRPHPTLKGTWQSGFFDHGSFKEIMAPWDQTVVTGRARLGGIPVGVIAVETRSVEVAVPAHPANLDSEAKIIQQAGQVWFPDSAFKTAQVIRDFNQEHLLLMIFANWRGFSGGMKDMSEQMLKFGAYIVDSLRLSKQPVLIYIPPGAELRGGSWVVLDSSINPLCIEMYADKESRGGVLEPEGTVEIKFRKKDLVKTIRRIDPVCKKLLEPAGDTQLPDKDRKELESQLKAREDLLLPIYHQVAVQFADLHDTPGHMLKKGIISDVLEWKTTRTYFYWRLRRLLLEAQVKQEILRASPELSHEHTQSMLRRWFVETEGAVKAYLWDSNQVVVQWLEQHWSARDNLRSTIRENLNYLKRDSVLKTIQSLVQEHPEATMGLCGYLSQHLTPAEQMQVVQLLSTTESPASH

Turning to `CC(=O)N[C@@H](C)COc1ccc(Oc2ccc(OC(C)C)cn2)cc1` [Example 29, N—{(S)-2-[4-(5-Isopropoxypyridin-2-yloxy)phenoxy]-1-methylethyl}acetamide], the pIC50 (usually the negative decadic logarithm of the IC50, by convention in mol/L) at human ACC2 is 5.92. Regarding `CC(=O)N[C@@H](C)COc1ccc(Oc2ccc(OC(C)C)cc2)cc1` [Example 59, N—{(S)-2-[4-(4-Isopropoxyphenoxy)phenoxy]-1-methylethyl}acetamide, reference compound], the “stimulation of cellular fat (palmitate) oxidation” value in assay [1] is reported as “no effect”. The molecule also had a pIC50 on rACC2 of 5.82. As for `CC(=O)NCCC[C@H]1OC[C@H](Oc2ccc(OC3CCCC3)cc2)CO1` [Example 6, trans-N-{3-[5-(4-Cyclopentyloxyphenoxy)-[1,3]dioxan-2-yl]propyl}acetamide], the pIC50 on human ACC2 is 6.70. The same measure, in the same setting: then `CC(=O)N[C@@H](C)CCc1ccc(Oc2ccc(OCc3ccccc3)cn2)cc1` [Example 19, N—{(S)-3-[4-(5-Benzyloxypyridin-2-yloxy)phenyl]-1-methylpropyl}acetamide], with 7.00; and `CC(=O)N[C@@H](C)COc1ccc(Oc2ccc(OC(C)C)cc2)nc1` [Example 39, N—{(S)-2-[6-(4-Isopropoxyphenoxy)pyridin-3-yloxy]-1-methylethyl}acetamide], with 5.60. Still for that read-out and setting: then `CC(=O)NC(C)CCc1ccc(Oc2ccc(OCc3ccccc3)cn2)cc1` (centres unmarked) [Example 9, N-{3-[4-(5-Benzyloxypyridin-2-yloxy)phenyl]-1-methylpropyl}acetamide], with 6.85; and `CC(=O)NCCC[C@H]1OC[C@H](Oc2ccc(OCc3ccccc3)cc2)CO1` [Example 4, trans-N-{3-[5-(4-benzyloxyphenoxy)-[1,3]dioxan-2-yl]propyl}acetamide], with 6.40; and `CC(=O)NC(C)COc1ccc(Oc2ccc(OC(C)C)cn2)cc1` (centres unmarked) [Example 27, N-{2-[4-(5-Isopropoxypyridin-2-yloxy)phenoxy]-1-methylethyl}acetamide], with 5.89.

Consider `CC(=O)NC(C)CCc1ccc(Oc2cnc(OC(C)C)cn2)cc1` (centres unmarked) [Example 49, N-{3-[4-(5-Isopropoxypyrazin-2-yloxy)phenyl]-1-methylpropyl}acetamide], for which the pIC50 at human ACC2 was 5.92.

`CC(=O)NCCC[C@H]1OC[C@H](Oc2ccc(OCc3ccccc3)cn2)CO1` [Example 17, trans-N-{3-[5-(5-benzyloxypyridin-2-yloxy)-[1,3]dioxan-2-yl]propyl}acetamide]: the pIC50 on human ACC2 was 7.30. Still for that read-out and setting: the same measure for `CC(CCc1ccc(Oc2ccc(OC(C)C)nc2)cc1)NC(N)=O` (centres unmarked) [Example 47, {3-[4-(6-Isopropoxypyridin-3-yloxy)phenyl]-1-methylpropyl}urea]: 6.82; for `CC(=O)NCCC[C@H]1OC[C@H](Oc2ncc(OC(C)C)cc2Cl)CO1` [Example 25, trans-N-{3-[5-(3-chloro-5-isopropoxypyridin-2-yloxy)-[1,3]dioxan-2-yl]propyl}acetamide]: 6.42. Same read-out and setting: the same measure for `CCCOc1ccc(Oc2ccc(CCC(C)NC(C)=O)cc2)nc1` (centres unmarked) [Example 11, N-{1-Methyl-3-[4-(5-propoxypyridin-2-yloxy)phenyl]propyl}acetamide]: 6.85. Turning to `CC(CCc1ccc(Oc2ccc(OC(C)C)nc2)cc1)NC=O` (centres unmarked) [Example 45, N-{3-[4-(6-Isopropoxypyridin-3-yloxy)phenyl]-1-methylpropyl}formamide], on human ACC2, the pIC50 is 6.17. In the case of `CC(=O)NC(C)CCc1ccc(Oc2ccc(OCc3ccccc3)nc2)cc1` (centres unmarked) [Example 36, N-{3-[4-(6-Benzyloxypyridin-3-yloxy)phenyl]-1-methylpropyl}acetamide], the negative logarithm of the IC50 (pIC50) on human ACC2 is 7.15. As for `CC(=O)NC(C)CCc1ccc(Oc2ccc(OC(C)C)nc2)cc1` (centres unmarked) [Example 33, N-{3-[4-(6-Isopropoxypyridin-3-yloxy)phenyl]-1-methylpropyl}acetamide], the pIC50 at human ACC2 is 7.22. Take `CC(=O)NC(C)CCc1ccc(Oc2ncc(OC(C)C)cc2Cl)cc1` (centres unmarked) [Example 32, N-{3-[4-(3-Chloro-5-isopropoxypyridin-2-yloxy)phenyl]-1-methylpropyl}acetamide]: at human ACC2, the pIC50 was 5.89. As for `CC(=O)NC(C)CCc1ccc(Oc2ccc(OC3CCOC3)cn2)cc1` (centres unmarked) [Example 20, N-(1-Methyl-3-{4-[5-(tetrahydrofuran-3-yloxy)pyridin-2-yloxy]phenyl}propyl)acetamide], the pIC50 at human ACC2 was 5.44. The same measure, in the same setting: the same measure for `CC(=O)NC(C)CCc1ccc(Oc2ccc(OCC3CCC3)cn2)cc1` (centres unmarked) [Example 12, N-{3-[4-(5-Cyclobutylmethoxypyridin-2-yloxy)phenyl]-1-methylpropyl}acetamide]: 7.30. As to `CC(CCc1ccc(Oc2ccc(OC(C)C)nc2)cc1)NC(=O)CO` (centres unmarked) [Example 48, 2-Hydroxy-N-{3-[4-(6-isopropoxypyridin-3-yloxy)phenyl]-1-methylpropyl}acetamide], the pIC50 on human ACC2 was 6.05. Still for that read-out and setting: then `CC(=O)NC(C)CCc1ccc(Oc2cnc(OC(C)C)nc2)cc1` (centres unmarked) [Example 40, N-{3-[4-(2-Isopropoxypyrimidin-5-yloxy)phenyl]-1-methylpropyl}acetamide], with 6.13; and `CC(=O)NCCC[C@H]1OC[C@H](Oc2ccc(OC(C)C)cn2)CO1` [Example 23, trans-N-{3-[5-(5-isopropoxypyridin-2-yloxy)-[1,3]dioxan-2-yl]-propyl}acetamide], with 5.70; and `COC(=O)NC(C)CCc1ccc(Oc2ccc(OC(C)C)nc2)cc1` (centres unmarked) [Example 46, Methyl {3-[4-(6-isopropoxypyridin-3-yloxy)phenyl]-1-methylpropyl}carbamate], with 6.68.

For `CC(=O)NC(C)CCc1ccc(Oc2ccc(OC3CCCC3)cn2)cc1` (centres unmarked) [Example 2, N-{3-[4-(5-Cyclopentyloxypyridin-2-yloxy)phenyl]-1-methylpropyl}acetamide], the pIC50 on human ACC2 was 6.85. As to `CC(=O)NC(C)CCc1cnc(Oc2ccc(OCc3ccccc3)nc2)nc1` (centres unmarked) [Example 37, N-{3-[2-(6-Benzyloxypyridin-3-yloxy)pyrimidin-5-yl]-1-methylpropyl}acetamide], the pIC50 at human ACC2 is 5.23. Still for that read-out and setting: the same measure for `CC(CCc1ccc(Oc2ccc(OC(C)C)nc2)cc1)NC(=O)C1CC1` (centres unmarked) [Example 44, N-{3-[4-(6-Isopropoxypyridin-3-yloxy)phenyl]-1-methylpropyl}cyclopropanecarboxamide]: 7.05. As to `CC(=O)N[C@@H](C)CCc1ccc(Oc2ccc(OC(C)C)nc2)cc1` [Example 35, N—{(S)-3-[4-(6-Isopropoxypyridin-3-yloxy)phenyl]-1-methylpropyl}acetamide], the pIC50 was 6.72 on human ACC1 (read-out: IC50 hACC (human ACC1), human ACC1, table row printed as hACC); 6.77 on rACC1 (rat ACC1); 6.40 at rACC2 (rat ACC2, read-out: IC50 rACC2); 7.52 on human ACC2. In addition, on human ACC1 (setting [2]), the “times higher potency than example 59, human ACC1” value was ~40 times. The “times higher potency than example 59, rat ACC1” value at rACC1 (setting [3]) is reported as > 3 times. The “stimulation of cellular fat (palmitate) oxidation” value in assay [1] is given as 1.7 fold. The “times higher potency than example 59, rat ACC2” value at rACC2 (setting [3]) is > 3 times. Moreover, the “times higher potency than example 59, human ACC2” value on human ACC2 (setting [2]) is “approx. 5 times”. As to `CC(=O)NC(C)CCc1ccc(Oc2ccc(OCC3CC3)nc2)cc1` (centres unmarked) [Example 50, N-{3-[4-(6-Cyclopropylmethoxypyridin-3-yloxy)phenyl]-1-methylpropyl}acetamide], the pIC50 on human ACC2 was 6.77. As to `CC(=O)NC(C)CCC1CCC(Oc2ccc(OC(C)C)nc2)CC1` (centres unmarked) [Example 52, N-{3-[4-(6-Isopropoxypyridin-3-yloxy)cyclohexyl]-1-methylpropyl}acetamide], the negative-log IC50 (pIC50) at human ACC2 is 7.10.

The record behind these values is patent publication US8470841B2, “Heterocyclic compounds, processes for their preparation, medicaments comprising these compounds, and the use thereof” (Sanofi, priority 2008, dated 2013).
